Measured values as given in patent US20200147217A1, “FUCOIDAN-BASED THERAGNOSTIC COMPOSITION” (National Cancer Center, priority 2018, published 2020).

Assays:
[1] = system: HT1080 subcutaneous xenograft tumor; experiment: Tumor growth inhibition in HT1080 xenograft model; type: in vivo, Nude mice (Balb/c nude); conditions: 5 mg Ce6 equivalent/kg i.v., +PDT 670 nm, 20 J/cm^2
Procedure: A photodynamic therapeutic effect caused by a photosensitizer-fucoidan conjugate was evaluated in a tumor-transplanted animal model. A tumor model into which HT1080 cancer cells are subcutaneously xenografted was injected intravenously with a free photosensitizer (free Ce6) or Ce6-Fucoidan, and light irradiation (PDT) was performed on the tumor site using a 670 nm laser. To evaluate an antitumor effect, the tumor size was measured daily for 10 days, and differences between the respective groups were analyzed. For the control experimental animals, phosphate buffer containing no photosensitizer was injected intravenously.
HT1080, a human fibrosarcoma cell line, was obtained from the American Type Culture Collection (ATCC, USA). The HT1080 cells were cultured, under conditions of 37° C., 5% carbon dioxide, and standard humidity, in Eagle's Minimum Essential Media (MEM) medium supplemented with 10% fetal bovine serum (FBS) and 1% penicillin/streptomycin. Nude mice (Balb/c nude) were subcutaneously injected with HT1080 cancer cells as much as 5×10^6 cells/100 μL, and after 5 to 7 days, it was checked whether subcutaneous tumors are produced. […] The tumor size was measured until Day 10 to prepare a tumor growth graph, and the tumor size was compared between the respective groups. […]

[2] = system: HT1080 human fibrosarcoma-transplanted animal model; experiment: Tumor-targeting fluorescence imaging after intravenous injection; type: in vivo, mice
Procedure: In Example 11, in order to analyze a tumor-targeting effect of a photosensitizer-fucoidan conjugate, an experiment was performed, in which the conjugate is intravenously administered to an experimental animal and a fluorescence image is taken.
Phosphate buffer (negative control), a free photosensitizer (free Ce6), or a photosensitizer-fucoidan conjugate (Ce6-Fucoidan) was injected intravenously, respectively, into an HT1080 human fibrosarcoma-transplanted animal model, and fluorescence images were taken with an IVIS imaging machine at 5 minutes and 24 hours after the injection (λex 660/20 nm, λem 710/40 nm). […] In FIG. 19B, fluorescence image signal values of the tumor tissues are quantified to compare the amount of photosensitizer accumulated in the tumor tissues. […] FIG. 19C illustrates results obtained by allowing mice to be euthanized, obtaining spleen, kidney, liver, and lung tissues, and identifying ex vivo fluorescence images thereof. […] FIG. 19D illustrates results obtained by freezing the obtained tumor tissues to prepare frozen sections, and then identifying, with a confocal microscope, a degree of penetration of the photosensitizer into each tumor tissue.

retention in the body ([2]; intravenous, up to 24 hours, fluorescence imaging): hardly remains in the body at 24 hours
Substance: chlorin e6 [free Ce6]
tumor growth inhibitory effect compared with the control [1]: no statistically significant tumor growth inhibitory effect | fluorescence signal caused by the photosensitizer in tumor frozen sections ([2]; confocal microscope, 24 hours after administration): hardly observed | fluorescence image signal in tumor tissues ([2]; intravenous, 24 hours after injection, IVIS): no fluorescence image signal even in tumor tissues
